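Results reflect a 48-hour exposure of cells in 96-well plates to compound at five concentrations. The concentration for full growth arrest is given as TGI.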 Where a SMILES comes first, the peptide text is derived from it. The star is where a group is joined. Boc = CC(C)(C)OC(=O)*
Columns and labels:
Assay in all cases: growth of human tumour cells (NCI), 48 h
[1] = test system: 786-0 renal
[2] = test system: HOP-92 NSCLC
[3] = test system: MDA-N
[4] = test system: SNB-75 CNS
[5] = test system: HL-60(TB) leukemia
[6] = test system: U251 CNS
[7] = test system: MALME-3M melanoma
[8] = test system: NCI/ADR-RES ovarian
[9] = test system: ACHN renal
[10] = test system: T-47D breast
[11] = test system: IGROV1 ovarian
[12] = test system: TK-10 renal
[13] = test system: RXF 393 renal
[14] = test system: SR leukemia
[15] = test system: UACC-257 melanoma
[16] = test system: DU-145 prostate
[17] = test system: LOX IMVI melanoma
[18] = test system: A498 renal
[19] = test system: NCI-H23 lung
[20] = test system: MDA-MB-231 breast

| Compound | TGI [1] [µM] | TGI [2] [µM] | TGI [3] [µM] | TGI [4] [µM] | TGI [5] [µM] | TGI [6] [µM] | TGI [7] [µM] | TGI [8] [µM] | TGI [9] [µM] | TGI [10] [µM] | TGI [11] [µM] | TGI [12] [µM] | TGI [13] [µM] | TGI [14] [µM] | TGI [15] [µM] | TGI [16] [µM] | TGI [17] [µM] | TGI [18] [µM] | TGI [19] [µM] | TGI [20] [µM] |
| --- | --- | --- | --- | --- | --- | --- | --- | --- | --- | --- | --- | --- | --- | --- | --- | --- | --- | --- | --- | --- |
| CCOC(=O)C(CC(C)C)NC(=O)C(Cc1ccccc1)NC(=O)CNC(=O)OC(C)(C)C (stereo not drawn) (Boc-Gly-Phe-Leu-OEt; configuration not given here) | 36.9 | 64 | 28.4 | 38.6 | 9.88 | 31.9 | 39.4 | > 100 | 30.8 | 61 | 49 | 97.8 | 49 | 36.5 | 36.3 | 43.6 | 34.3 | 49.6 |  |  |
| O=C(Nc1cc(Cl)c(Cl)cc1Cl)C(=O)C(C(=O)c1ccc2ccccc2c1)C1OC(=O)c2ccccc21 (stereo not given) | 20.9 | 7.96 |  |  | 88.1 | 17 | 30.9 |  | 39.9 |  | 44.7 |  | 15.1 | > 100 | 28.7 |  | 39.8 | 25.8 | 15.2 |  |
| O=C1C=C(Nc2ccccc2C(=O)CC(=O)C(=O)Nc2ccc(Cl)c(Cl)c2)c2ccccc2C1=O | > 100 | > 100 |  |  |  | > 100 | 29.8 |  | > 100 |  | > 100 |  | > 100 | > 100 | 47.6 |  |  | > 100 | > 100 |  |
| CCCCCC(=O)Cc1cc(OC)cc2c1C(=O)Oc1cc(O)c(C(=O)O)c(CC(=O)CCCCC)c1O2 | 37.7 |  |  | > 100 | > 100 | 29.3 | > 100 |  | > 100 |  | > 100 | > 100 |  | > 100 | > 100 |  | > 100 | > 100 | 37.1 |  |
| Cc1cc(C)c(NS(=O)c2cccc([N+](=O)[O-])c2)c(C)c1 (stereo not given) | > 100 | > 100 |  |  | > 100 | > 100 | > 100 | > 100 | > 100 | > 100 |  | > 100 | > 100 | > 100 | > 100 | > 100 |  | > 100 | > 100 |  |
| C1=c2ccccc2=C2C(=C(c3ccccc3)C(c3ccccc3)=NN2c2ccccc2)S1 | > 100 | > 100 |  | > 100 | > 100 | > 100 | > 100 |  | > 100 |  | > 100 | > 100 | > 100 |  | > 100 |  | > 100 | > 100 | > 100 |  |
| COC1=CC(=O)c2ccccc2C1(C)C1=NC(C)(C)CO1 (stereo not given) | > 100 | > 100 |  | > 100 | > 100 | > 100 | > 100 |  | > 100 |  | > 100 | > 100 | > 100 | > 100 | > 100 |  |  |  | > 100 |  |
| C[N+](C)(Cc1ccc(NC(=O)CCCC(=O)ON2C(=O)CCC2=O)cc1)c1ccccc1 | > 100 | < 0.01 |  | 2.42 | > 100 | > 100 | < 0.01 |  | > 100 |  |  | > 100 |  | < 0.01 | < 0.01 |  | > 100 | > 100 | > 100 |  |
| NCCc1ccc2c(c1)C(=O)c1c(O)ccc(O)c1C2=O | 8.59 | > 100 | > 100 | 42.3 | 5.34 | > 30.9 | 4.75 | > 82.9 | > 53.6 |  | > 100 | > 100 | > 100 | > 100 | > 100 | > 100 | > 100 | > 100 | > 60.8 | > 27.8 |
| CO[C@H](c1ccccc1)[C@H](C)N(C)c1ccc2ccccc2c1C1=NC(C)(C)CO1 | 30.1 | 30.6 |  | 32.4 | 61.3 | 30.5 | 33 |  | 36.4 |  | > 100 | 61.8 | 27.6 | 50.1 | 30.6 |  |  |  | 31 |  |
| O=C(O)Cc1ccc2c(c1O)C(=O)c1c(ccc(CC(=O)O)c1O)C2=O | > 100 | > 100 |  | > 100 | > 100 | > 100 | > 100 |  | > 100 |  | > 100 | > 100 |  | > 100 | > 100 |  | > 100 | > 100 | > 100 |  |
| CC1=NN(c2ccccc2)C(=O)C1=C1SCCCS1 | > 100 | 64 |  | > 100 | 41.9 | 37.4 | > 100 |  | > 100 |  | > 100 | > 100 | 60.7 | 34.5 | 94.1 |  | 55.8 | 90.7 | > 100 |  |
| COc1cccc(/C=C2\C(=O)N(C(=O)Cc3ccccc3)N=C2C)c1 | > 100 |  |  | > 100 | > 100 | > 100 | > 100 |  | > 100 |  |  | > 100 |  | > 100 | > 100 |  | > 100 |  | > 100 |  |
| Cc1cc(Br)cc(C)c1NC(=O)C(=O)C1C(=O)C(CC2C(=O)c3ccccc3C2=O)C(=O)CC1(C)C (stereo not given) | > 100 | > 100 | > 100 | > 100 | > 100 | > 100 |  | > 100 | > 100 |  | > 100 | > 100 | > 100 |  | > 100 | > 100 | > 100 |  | > 100 | > 100 |
| O=S(Cc1cc2c(cc1Br)OCO2)c1ccccc1 (stereo not given) | > 100 | > 100 |  | > 100 | 57.4 | > 100 | > 100 |  | > 100 |  | > 100 | > 100 | > 100 |  | > 100 |  | 30.7 | > 100 | > 100 |  |
| CO[C@@]12CC(=O)/C(=C(O)\C=C\c3ccccc3)C(=O)[C@]1(OC)Cc1ccccc1O2 | 70.2 | > 100 |  | > 100 |  | 59.1 | > 100 |  | 74.2 |  | > 100 | 73.4 | 36.5 |  | > 100 |  | > 100 | 90.7 | 61.8 |  |

From PubChem BioAssay (NCI)
